This note sets out measurements from US20240239801A1, “PYRIMIDO[5,4,D]PYRIMIDINE COMPOUNDS, COMPOSITIONS COMPRISING THEM AND USES THEREOF” (Université de Montréal, priority 2021, published 2024).

One may read the IC50 as the point on the concentration scale where inhibition reaches its midpoint.

The target of one assay is CRAF (Homo sapiens, UniProt P04049). The assay is described as follows: CRAF kinase activity assay (ADP-Glo). It is filed as biochemical. The conditions noted are these: Table 3. The method, then:
(§1) Compound preparation: solid samples of each substances in 1dram vials were suspended in DMSO (Fisher Scientific) at a stock concentration of 20 mM. Stocks were kept at −20° C. and protected from light. If solubility of the compound at 20 mM appeared to be an issue, the initial concentration of the DMSO stock was changed to 10 mM or 5 mM.
(§2) In vitro enzymatic reactions were used for evaluating compounds intrinsic activity against BRAF, CRAF and ARAF. For BRAF and CRAF, 0.375 nM of purified GST-tagged kinases (cat #B4062-10UG and cat #R1656-10UG respectively from Millipore Sigma) were incubated with 75 nM of kinase-dead MEK1 substrate (cat #40075; BPS Bioscience) in the presence of 10 μM of Ultrapure ATP (cat #V9102; Promega; part V915A) with and without the test compound in a buffer containing 50 mM HEPES pH 7.5, 10 mM MgCl2, 1 mM EDTA, 0.01% Brij-35 and 2 mM DTT. Separate reactions were performed with the MEK1 substrate and ATP as a blank control. ARAF, kinase reactions were rigorously the same with the exception that kinase concentration was raised to 3.75 nM (cat #1768-0000-1; Reaction Biology).
(§3) For compound treatment, 5 μL/well of test substance solution are placed in a 384-well proxyplate (Perkin Elmer) and mixed with 2× concentrated kinase reactions. The dilution series is selected so that nine concentrations cover a range from 100 nM to 0.01 nM. […] The final concentration of DMSO in the assay is set at 0.05%.
(§4) BRAF and CRAF kinase reactions were carried out for a total of 2 hours at 30° C. and then stopped by ½ dilution in ADP-Glo Reagent (cat #V9102; Promega; part V912C). Reactions were then incubated for 1 h at room temperature before addition of one volume of Kinase Detection Reagent (cat #V9102; Promega; part V917A). Plates were then equilibrated at room temperature for 30 minutes before detection of luminescence on a Synergy Neo2 plate reader (Biotek). The effect of each compound dilution on BRAF and CRAF kinase activity was expressed as % inhibition and calculated as follows. First, the internal 100% inhibition control (average of luminescence in kinase reactions comprising kinase dead MEK1 substrate alone) was subtracted from each data point. The average of DMSO (vehicle) controls (set as 0% inhibition) was established and used to calculate % inhibition:
(§5) IC50 values were obtained by plotting the kinase inhibition values and fitting the dose-activity curves using a log(agonist) versus response−variable slope (four parameters) function using either GraphPadPrism (V7.0) or Dotmatics Screening Ultra platform. Standards included in the ARAF kinase assay were Belvarafenib (MedChem Express cat #HY-109080; CAS #1446113-23-0), LXH254 (MedChem Express cat #HY-112089; CAS #1800398-38-2) and BGB283 (cat #HY-18957; CAS #1446090-79-4).
Background: ADP-Glo turns the ADP formed in a reaction into a luminescent signal.

Another assay relates to HCT116 pERK. Put plainly: Phospho-ERK inhibition, AlphaLISA SureFire Ultra p-ERK 1/2. It is filed as cell-based, human. The note with it: Table 3; for IC50: 1 h treatment; for HCT116 (Ymin %): lowest value of the pERK IC50 curve. The essentials:
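IC50 derived by four-parameter fitting of % inhibition, with DMSO as 0% and 1 μM trametinib subtracted as background. Signal is AlphaLISA p-ERK1/2 (Thr202/Tyr204) in lysates of overnight-seeded cells (RPMI-1640, 5% FBS) treated 1 h with ten concentrations from 30 or 10 μM to 0.33 nM, 0.5% DMSO.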
For orientation: Alpha assays give light when donor and acceptor beads are brought close together.

A further assay deals with T1, BRAF (Homo sapiens, UniProt P15056).
T1 construct: GST; purchased Millipore Sigma B4062-10UG
T1 sequence (P15056 whole entry): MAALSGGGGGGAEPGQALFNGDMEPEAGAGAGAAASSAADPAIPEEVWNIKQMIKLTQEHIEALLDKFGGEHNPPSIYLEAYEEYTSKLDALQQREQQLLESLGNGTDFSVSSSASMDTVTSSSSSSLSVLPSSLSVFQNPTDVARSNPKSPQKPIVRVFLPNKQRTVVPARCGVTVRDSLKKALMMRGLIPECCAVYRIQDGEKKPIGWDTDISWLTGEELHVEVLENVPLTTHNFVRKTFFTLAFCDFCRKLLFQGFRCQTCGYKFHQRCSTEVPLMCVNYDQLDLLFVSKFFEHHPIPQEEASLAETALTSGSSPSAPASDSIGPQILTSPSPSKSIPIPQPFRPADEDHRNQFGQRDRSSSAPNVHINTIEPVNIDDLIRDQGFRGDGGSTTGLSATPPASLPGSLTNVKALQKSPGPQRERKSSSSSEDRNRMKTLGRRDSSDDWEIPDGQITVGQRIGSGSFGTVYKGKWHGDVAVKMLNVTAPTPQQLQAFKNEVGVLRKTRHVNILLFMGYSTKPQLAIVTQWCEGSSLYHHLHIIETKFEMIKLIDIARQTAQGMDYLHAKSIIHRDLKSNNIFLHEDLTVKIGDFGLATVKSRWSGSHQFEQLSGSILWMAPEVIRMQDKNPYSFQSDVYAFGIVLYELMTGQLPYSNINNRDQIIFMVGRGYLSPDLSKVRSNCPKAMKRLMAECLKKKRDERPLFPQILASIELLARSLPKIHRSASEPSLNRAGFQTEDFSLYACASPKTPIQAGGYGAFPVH
The assay is described as follows: BRAF kinase activity assay (ADP-Glo). It is filed as biochemical. The conditions noted are these: Table 3. The method, then: as §1, §2, §3, §4, §5

Where only a bound is given, the exact number is not on record here.

CRAF, sequence (P04049 whole entry): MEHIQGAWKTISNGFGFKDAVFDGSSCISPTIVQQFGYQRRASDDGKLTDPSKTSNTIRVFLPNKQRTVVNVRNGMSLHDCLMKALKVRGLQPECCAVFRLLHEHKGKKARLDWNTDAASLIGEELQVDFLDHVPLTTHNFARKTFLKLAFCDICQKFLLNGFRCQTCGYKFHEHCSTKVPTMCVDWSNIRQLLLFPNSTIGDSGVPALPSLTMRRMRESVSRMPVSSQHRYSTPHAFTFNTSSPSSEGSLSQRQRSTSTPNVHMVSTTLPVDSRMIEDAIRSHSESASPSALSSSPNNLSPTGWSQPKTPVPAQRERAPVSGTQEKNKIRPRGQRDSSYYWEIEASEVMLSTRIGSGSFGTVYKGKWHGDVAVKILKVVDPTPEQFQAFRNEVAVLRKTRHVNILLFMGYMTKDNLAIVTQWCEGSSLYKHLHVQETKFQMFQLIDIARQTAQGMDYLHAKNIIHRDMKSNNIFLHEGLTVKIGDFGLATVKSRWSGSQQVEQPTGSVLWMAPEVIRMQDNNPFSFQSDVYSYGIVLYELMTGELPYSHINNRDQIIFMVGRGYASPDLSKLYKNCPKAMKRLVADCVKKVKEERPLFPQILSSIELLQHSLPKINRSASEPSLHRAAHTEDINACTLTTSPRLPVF

As to `Cc1c(F)cccc1S(=O)(=O)Nc1ccc(F)c(Nc2ncnc3cnc(-n4nnc5c(N)cccc54)nc23)c1F` [Example 93], the IC50 on CRAF is < 10 nM; in the assay with HCT116 pERK, < 500 nM; at BRAF, 1 to 10 nM. The “HCT116 (Ymin %)” value in the assay with HCT116 pERK worked out at 1.3%.

As to `Nc1cccc2c1nnn2-c1ncc2ncnc(Nc3c(F)ccc(NS(=O)(=O)c4cccc(Cl)c4Cl)c3F)c2n1` [Example 94], the IC50 was < 10 nM at CRAF, < 500 nM in the assay with HCT116 pERK and 1 to 10 nM on BRAF. In addition, the “HCT116 (Ymin %)” value with HCT116 pERK was 7.7%.

Consider `Cc1c(F)cccc1S(=O)(=O)Nc1ccc(F)c(Nc2ncnc3cnc(-n4cc(S(=O)(=O)N5CCN(C)CC5)c5ccccc54)nc23)c1F` [Example 96], for which the IC50 on CRAF is < 10 nM; in the assay with HCT116 pERK (Homo sapiens, HCT-116) it was < 500 nM; at BRAF, < 1 nM.

For the compound `Cc1c(F)cccc1S(=O)(=O)Nc1ccc(F)c(Nc2ncnc3cnc(-n4cc(C(=O)N(C)C)c5ccccc54)nc23)c1F` [Example 97], the IC50 on CRAF was 10 to 50 nM; with HCT116 pERK, < 500 nM; on BRAF, < 1 nM. In addition, the “HCT116 (Ymin %)” value in the assay with HCT116 pERK is on record as −6.3%.

As for `Cc1c(F)cccc1S(=O)(=O)Nc1ccc(F)c(Nc2ncnc3cnc(-n4cc(C(=O)N5CCN(C)CC5)c5ccccc54)nc23)c1F` [Example 99], the IC50 on CRAF was 10 to 50 nM; on BRAF, < 1 nM. In the assay with HCT116 pERK, the “HCT116 (Ymin %)” value was “(−3.6) %”.

Consider `Cc1c(F)cccc1S(=O)(=O)Nc1ccc(F)c(Nc2ncnc3cnc(-n4cc(C(=O)N5CCOCC5)c5ccccc54)nc23)c1F` [Example 100], for which the IC50 at CRAF was 10 to 50 nM; with HCT116 pERK, < 500 nM; at BRAF, < 1 nM. Further, the “HCT116 (Ymin %)” value in the assay with HCT116 pERK worked out at 2.2%.

For the compound `Cc1c(F)cccc1S(=O)(=O)Nc1ccc(F)c(Nc2ncnc3cnc(-n4cc(C(=O)N(C)CCO)c5ccccc54)nc23)c1F` [Example 101], the IC50 is < 10 nM at CRAF, < 500 nM in the assay with HCT116 pERK and < 1 nM on BRAF. Moreover, the “HCT116 (Ymin %)” value in the assay with HCT116 pERK is reported as 3.5%.

Turning to `Cc1c(F)cccc1S(=O)(=O)Nc1ccc(F)c(Nc2ncnc3cnc(-n4cc(C(=O)N5CCC(O)CC5)c5ccccc54)nc23)c1F` [Example 102], the IC50 on CRAF was < 10 nM; in the assay with HCT116 pERK it was 500 to 1000 nM; at BRAF it was < 1 nM. In the assay on HCT116 pERK, the “HCT116 (Ymin %)” value is on record as −9.5%.

In the case of `Cc1c(F)cccc1S(=O)(=O)Nc1ccc(F)c(Nc2ncnc3cnc(-n4cc(C(=O)N5CCC[C@H](O)C5)c5ccccc54)nc23)c1F` [Example 103], the IC50 on CRAF was < 10 nM; in the assay on HCT116 pERK, 500 to 1000 nM; at BRAF, < 1 nM. Moreover, the “HCT116 (Ymin %)” value in the assay with HCT116 pERK is recorded as −9.9%.

Consider `Cc1c(F)cccc1S(=O)(=O)Nc1ccc(F)c(Nc2ncnc3cnc(-n4nc(C(=O)N5CCN(C)CC5)c5ccccc54)nc23)c1F` [Example 104], for which the IC50 on CRAF was > 50 nM; in the assay with HCT116 pERK (Homo sapiens, HCT-116), < 500 nM; at BRAF it was < 1 nM.

On to `Cc1c(F)cccc1S(=O)(=O)Nc1ccc(F)c(Nc2ncnc3cnc(-n4nc(C(=O)N(C)C)c5ccccc54)nc23)c1F` [Example 105], for which the IC50 on CRAF was > 50 nM; in the assay on HCT116 pERK, < 500 nM; on BRAF, 1 to 10 nM. Further, the “HCT116 (Ymin %)” value with HCT116 pERK is given as −8.7%.

Take `Cc1c(F)cccc1S(=O)(=O)Nc1ccc(F)c(Nc2ncnc3cnc(-n4nc(C(=O)N(C)Cc5ccncc5)c5ccccc54)nc23)c1F` [Example 106]: the IC50 at CRAF is 10 to 50 nM; with HCT116 pERK it was < 500 nM; on BRAF, < 1 nM. Besides, in the assay on HCT116 pERK, the “HCT116 (Ymin %)” value is −2.3%.

With `Cc1c(F)cccc1S(=O)(=O)Nc1ccc(F)c(Nc2ncnc3cnc(-n4nc(C(=O)N(C)CCO)c5ccccc54)nc23)c1F` [Example 107], the results for the IC50 at CRAF, with HCT116 pERK and on BRAF were 10 to 50 nM, 500 to 1000 nM and < 1 nM, respectively. Moreover, the “HCT116 (Ymin %)” value in the assay on HCT116 pERK was −5.2%.

Regarding `Cc1c(F)cccc1S(=O)(=O)Nc1ccc(F)c(Nc2ncnc3cnc(-n4nc(C(=O)N5CCC[C@H](O)C5)c5ccccc54)nc23)c1F` [Example 109], the IC50 at CRAF was 10 to 50 nM; in the assay on HCT116 pERK, < 500 nM; on BRAF, < 1 nM. Further, the “HCT116 (Ymin %)” value in the assay with HCT116 pERK was −6.5%.

Take `Cc1c(F)cccc1S(=O)(=O)Nc1ccc(F)c(Nc2ncnc3cnc(-n4nc(C(=O)N5CCOCC5)c5ccccc54)nc23)c1F` [Example 110]: the IC50 at CRAF is 10 to 50 nM; in the assay with HCT116 pERK it was < 500 nM; at BRAF, < 1 nM. The “HCT116 (Ymin %)” value in the assay on HCT116 pERK is reported as −3.7%.

As to `COc1ccc(S(=O)(=O)Nc2ccc(F)c(Nc3ncnc4cnc(-n5cnc6c(N)cccc65)nc34)c2F)c(C)c1F` [Example 111], the IC50 is < 10 nM on CRAF, < 500 nM with HCT116 pERK and 1 to 10 nM on BRAF. Also, the “HCT116 (Ymin %)” value with HCT116 pERK is recorded as −8.1%.

`Cc1c(F)cccc1S(=O)(=O)Nc1ccc(F)c(Nc2ncnc3cnc(-n4cc(S(=O)(=O)N(C)Cc5ccncc5)c5ccccc54)nc23)c1F` [Example 113]: the IC50 on CRAF was 10 to 50 nM; with HCT116 pERK, 500 to 1000 nM; at BRAF, 1 to 10 nM. Moreover, in the assay with HCT116 pERK, the “HCT116 (Ymin %)” value is recorded as −7.0%.

For the compound `COc1ccc(S(=O)(=O)Nc2ccc(F)c(Nc3ncnc4cnc(-n5cnc6ccccc65)nc34)c2F)c(C)c1Cl` [Example 115], the IC50 on CRAF was 10 to 50 nM; with HCT116 pERK, < 500 nM; on BRAF it was 1 to 10 nM. Further, the “HCT116 (Ymin %)” value with HCT116 pERK is 2%.

Regarding `COc1ccc(S(=O)(=O)Nc2ccc(F)c(Nc3ncnc4cnc(-n5cnc6ccccc65)nc34)c2F)c(C)c1F` [Example 116], the IC50 was > 50 nM on CRAF, < 500 nM with HCT116 pERK and 1 to 10 nM at BRAF. For the same compound, the “HCT116 (Ymin %)” value with HCT116 pERK is listed as −1%.

For the compound `COc1ccc(S(=O)(=O)Nc2ccc(F)c(Nc3ncnc4cnc(-n5nnc6ccccc65)nc34)c2F)c(C)c1Cl` [Example 117], the IC50 was 10 to 50 nM at CRAF, 1000 to 10000 nM in the assay on HCT116 pERK and > 10 nM on BRAF. Also, the “HCT116 (Ymin %)” value in the assay with HCT116 pERK was −1%.

`COc1ccc(S(=O)(=O)Nc2ccc(F)c(Nc3ncnc4cnc(-n5nnc6ccccc65)nc34)c2F)c(C)c1F` [Example 118]: the IC50 was 10 to 50 nM at CRAF, 1000 to 10000 nM in the assay on HCT116 pERK and > 10 nM at BRAF. For the same compound, the “HCT116 (Ymin %)” value with HCT116 pERK was −14%.

As for `Cc1c(F)cccc1S(=O)(=O)Nc1ccc(F)c(Nc2ncnc3cnc(-n4nnc5ccccc54)nc23)c1F` [Example 121], the IC50 is < 10 nM on CRAF, 1000 to 10000 nM in the assay on HCT116 pERK and 1 to 10 nM on BRAF. The “HCT116 (Ymin %)” value in the assay on HCT116 pERK is −4%.

As to `Cc1c(Cl)cccc1S(=O)(=O)Nc1ccc(F)c(Nc2ncnc3cnc(-n4nnc5ccccc54)nc23)c1F` [Example 124], the IC50 was < 10 nM at CRAF, 1000 to 10000 nM in the assay with HCT116 pERK and 1 to 10 nM on BRAF. Also, in the assay with HCT116 pERK, the “HCT116 (Ymin %)” value was −9%.

As to `Cc1c(Cl)cccc1S(=O)(=O)Nc1ccc(F)c(Nc2ncnc3cnc(-n4cnc5ccccc54)nc23)c1F` [Example 127], the IC50 on CRAF was < 10 nM; in the assay on HCT116 pERK, < 500 nM; at BRAF, 1 to 10 nM. In the assay on HCT116 pERK, the “HCT116 (Ymin %)” value stood at 0%.

Consider `CC1(O)CCN(c2cccc3c2ncn3-c2ncc3ncnc(Nc4c(F)ccc(NS(=O)(=O)c5cccc(Cl)c5Cl)c4F)c3n2)CC1` [Example 130], for which the IC50 was < 10 nM on CRAF, < 500 nM in the assay with HCT116 pERK and 1 to 10 nM on BRAF. Also, in the assay on HCT116 pERK, the “HCT116 (Ymin %)” value was −13%.
